Experimental data as given in patent publication US20220002279A1, “NOVEL IMIDAZOLE DERIVATIVE” (priority 2018, published 2022).
pIC50: −log10 of the molar value. In brackets after ≈: the same amount, converted by molar mass. Read-outs that look alike come from different tables or passages of the source.

Tests used:
[1] = test system: Escherichia coli strain ATCC25922; assay: Antimicrobial activity, MIC by broth microdilution; assay type: cell-based; conditions: ATCC25922, 18 h, cation-adjusted Mueller-Hinton broth, about 5×10^5 CFU/mL, 35° C., about 18 hours, read-out: MIC Escherichia coli ATCC25922
In short: (§1)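 MIC read by eye as the lowest drug level lacking visible growth after roughly 18 h at 35° C. Cells from heart infusion agar, set to McFarland 0.5 and diluted, were inoculated at about 5×10^5 CFU/mL into cation-adjusted Mueller-Hinton broth with compound, per adapted CLSI microdilution.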

[2] = test system: Pseudomonas aeruginosa strain ATCC27853; assay: Antimicrobial activity, MIC by broth microdilution; assay type: cell-based; conditions: ATCC27853, 18 h, cation-adjusted Mueller-Hinton broth, about 5×10^5 CFU/mL, 35° C., about 18 hours, read-out: MIC Pseudomonas aeruginosa ATCC27853
In short: as §1

[3] = test system: Klebsiella pneumoniae strain ATCC13883; assay: Antimicrobial activity, MIC by broth microdilution; assay type: cell-based; conditions: ATCC13883, cation-adjusted Mueller-Hinton broth, about 5×10^5 CFU/mL, 35° C., about 18 hours, read-out: MIC Klebsiella pneumoniae ATCC13883
In short: as §1

[4] = target: T1, Escherichia coli LpxC enzyme (Escherichia coli, UniProt P0A725); assay: Inhibitory activity on Escherichia coli LpxC enzyme (fluorescamine method); assay type: biochemical
T1 construct: made in house; host or cells: Escherichia coli
T1 sequence (P0A725 1-305): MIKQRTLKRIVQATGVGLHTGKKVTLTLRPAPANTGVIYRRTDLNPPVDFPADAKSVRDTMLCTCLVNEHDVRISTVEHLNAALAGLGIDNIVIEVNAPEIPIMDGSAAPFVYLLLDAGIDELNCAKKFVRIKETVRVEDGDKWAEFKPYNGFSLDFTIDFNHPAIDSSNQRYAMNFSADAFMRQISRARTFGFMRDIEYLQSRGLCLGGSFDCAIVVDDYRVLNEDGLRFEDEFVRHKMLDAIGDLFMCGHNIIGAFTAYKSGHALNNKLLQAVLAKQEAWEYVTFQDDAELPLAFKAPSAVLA
In short: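 LpxC reacted with UDP-3-O-(R-3-hydroxymyristoyl)-N-acetylglucosamine; product amine quantified after fluorescamine stop and pH 8.0 phosphate buffer addition, at 390 nm/495 nm. Inhibition curve built from a range of test compound concentrations.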

[5] = fluorescamine detection, 3.1 nmol/L enzyme, 20 μmol/L substrate, pH 6.5, 120 min, read-out: IC50 (inhibitory activity on Escherichia coli LpxC enzyme, Fluoresamine method)

| SMILES | MIC [1] [µg/mL] | MIC [2] [µg/mL] | MIC [3] [µg/mL] | pIC50 [4, 5] | pIC50 [4] |
| --- | --- | --- | --- | --- | --- |
| C[C@H](O)c1nccn1[C@H](CO)c1cc(-c2ccc(C#C[C@@H]3[C@H]4CN(CCO)C[C@@H]34)cc2)on1 [Compound 96, (2S)-2-[5-(4-{[(1R,5S,6s)-3-(2-hydroxyethyl)-3-azabicyclo[3.1.0]hexan-6-yl]ethynyl}phenyl)-1,2-oxazol-3-yl]-2-{2-[(1S)-1-hydroxyethyl]-1H-imidazol-1-yl}ethan-1-ol] | 1 (≈ 2.23 µM) | 4 (≈ 8.92 µM) | 2 (≈ 4.46 µM) | 6.59 | – |
| C[C@H](O)c1nccn1Cc1cc(-c2ccc(C#CC3CC(N(C)C)C3)cc2)on1 (stereo partly drawn) [Compound 97, (1S)-1-(i{[5-(4-{[3-(dimethylamino)cyclobutyl]ethynyl}phenyl)-1,2-oxazol-3-yl]methyl}-1H-imidazol-2-yl)ethan-1-ol] | 4 (≈ 10.2 µM) | 32 (≈ 81.9 µM) | 8 (≈ 20.5 µM) | 7.00 | – |
| C[C@H](O)c1nccn1Cc1cc(-c2ccc(C#CC3CC(NC4CC4)C3)cc2)on1 (stereo partly drawn) [Compound 98, (1S)-1-(1-{[5-(4-{[3-(cyclopropylamino)cyclobutyl]ethynyl}phenyl)-1,2-oxazol-3-yl]methyl}-1H-imidazol-2-yl)ethan-1-ol] | 0.25 (≈ 0.621 µM) | 16 (≈ 39.8 µM) | 0.5 (≈ 1.24 µM) | 7.29 | – |
| CCN1C[C@@H]2[C@@H](C#Cc3ccc(-c4cc(Cn5ccnc5[C@H](C)O)no4)cc3)[C@@H]2C1 [Compound 99, (1S)-1-(1-{[5-(4-{[(1R,5S,6s)-3-ethyl-3-azabicyclo[3.1.0]hexan-6-yl]ethynyl}phenyl)-1,2-oxazol-3-yl]methyl}-1H-imidazol-2-yl)ethan-1-ol] | 2 (≈ 4.97 µM) | 16 (≈ 39.8 µM) | 2 (≈ 4.97 µM) | 7.04 | – |
| C[C@H](O)c1nccn1Cc1cc(-c2ccc(C#C[C@@H]3[C@H]4CN(C=O)C[C@@H]34)cc2)no1 [Compound 102, (1R,5S,6s)-6-({4-[5-({2-[(1S)-1-hydroxyethyl]-1H-imidazol-1-yl}methyl)-1,2-oxazol-3-yl]phenyl}ethynyl)-3-azabicyclo[3.1.0]hexane-3-carbaldehyde] | 0.5 (≈ 1.24 µM) | 64 (≈ 159 µM) | 1 (≈ 2.48 µM) | 6.99 | – |
| C[C@H](O)c1nccn1Cc1cc(-c2ccc(C#C[C@H]3C[C@H](NC=O)C3)cc2)on1 [Compound 103, N-[trans-3-({4-[3-({2-[(1S)-1-Hydroxyethyl]-1H-imidazol-1-yl}methyl)-1,2-oxazol-5-yl]phenyl}ethynyl)cyclobutyl]formamide] | 1 (≈ 2.56 µM) | > 128 | 2 (≈ 5.12 µM) | – | 7.06 |
| CNC(=O)C(=O)N1C[C@@H]2[C@@H](C#Cc3ccc(-c4cc(Cn5ccnc5[C@H](C)O)no4)cc3)[C@@H]2C1 [Compound 105, 2-[(1R,5S,6s)-6-({4-[3-({2-[(1S)-1-Hydroxyethyl]-1H-imidazol-1-yl}methyl)-1,2-oxazol-5-yl]phenyl}ethynyl)-3-azabicyclo[3.1.0]hexan-3-yl]-N-methyl-2-oxoacetamide] | 1 (≈ 2.18 µM) | 16 (≈ 34.8 µM) | 1 (≈ 2.18 µM) | 7.20 | – |
| C[C@H](O)c1nccn1Cc1cc(-c2ccc(C#C[C@@H]3[C@H]4CN(C(=O)C(N)=O)C[C@@H]34)cc2)on1 [Compound 107, 2-[(1R,5S,6s)-6-((4-[3-((2-[(1S)-1-hydroxyethyl]-1H-imidazol-1-yl}methyl)-1,2-oxazol-5-yl]phenyl}ethynyl)-3-azabicyclo[3.1.0]hexan-3-yl]-2-oxoacetamide] | 2 (≈ 4.49 µM) | 8 (≈ 18 µM) | 1 (≈ 2.24 µM) | 7.10 | – |
| C[C@H](O)c1nccn1Cc1cc(-c2ccc(C#C[C@@H]3[C@H]4CN(C(=O)C(=O)N(C)C)C[C@@H]34)cc2)on1 [Compound 108, 2-[(1R,5S,6s)-6-((4-[3-((2-[(1S)-1-hydroxyethyl]-1H-imidazol-1-yl}methyl)-1,2-oxazol-5-yl]phenyl}ethynyl)-3-azabicyclo[3.1.0]hexan-3-yl]-N,N-dimethyl-2-oxoacetamide] | 4 (≈ 8.45 µM) | 16 (≈ 33.8 µM) | 4 (≈ 8.45 µM) | 6.91 | – |
| C[C@H](O)c1nccn1Cc1cc(-c2ccc(C#CC3C(CO)C3CO)cc2)on1 (stereo partly drawn) [Compound 109, (1S)-1-(1-{[5-(4-{[2,3-Bis(hydroxymethyl)cyclopropyl]ethynyl}phenyl)-1,2-oxazol-3-yl]methyl}-1H-imidazol-2-yl)ethan-1-ol] | 16 (≈ 40.7 µM) | 64 (≈ 163 µM) | 32 (≈ 81.3 µM) | – | 6.88 |
| C[C@H](O)c1nccn1Cc1cc(-c2ccc(C#C[C@@H]3[C@H]4CN(CCCC(=O)O)C[C@@H]34)cc2)no1 [Compound 111, 4-[(1R,5S,6s)-6-({4-[5-({2-[(1S)-1-hydroxyethyl]-1H-imidazol-1-yl}methyl)-1,2-oxazol-3-yl]phenyl}ethynyl)-3-azabicyclo[3.1.0]hexan-3-yl]butanoic acid] | 1 (≈ 2.17 µM) | 8 (≈ 17.4 µM) | 4 (≈ 8.69 µM) | 6.71 | – |
| C[C@H](O)c1nccn1Cc1cc(-c2ccc(C#CC3CC(NC4COC4)C3)cc2)on1 (stereo partly drawn) [Compound 112, (1S)-1-[l-({5-[4-({3-[(oxetan-3-yl)amino]cyclobutyl}ethynyl)phenyl]-1,2-oxazol-3-yl}methyl)-1H-imidazol-2-yl]ethan-1-ol] | 0.5 (≈ 1.19 µM) | 32 (≈ 76.5 µM) | 1 (≈ 2.39 µM) | – | 7.10 |
| C[C@H](O)c1nccn1[C@H](CN)c1cc(-c2ccc(C#CC3(C)COC3)cc2)on1 [Compound 116, (1S)-1-{1-[(1R)-2-amino-1-(5-{4-[(3-methyloxetan-3-yl)ethynyl]phenyl}-1,2-oxazol-3-yl)ethyl]-1H-imidazol-2-yl}ethan-1-ol] | 0.5 (≈ 1.27 µM) | 64 (≈ 163 µM) | 2 (≈ 5.1 µM) | 7.10 | – |
| C[C@H](O)c1nccn1Cc1cc(-c2ccc(C#CC3CCS(=O)(=O)C3)cc2)on1 (stereo partly drawn) [Compound 119, 3-((4-(3-((2-((S)-1-hydroxyethyl)-1H-imidazol-1-yl)methyl)isoxazol-5-yl)phenyl)ethynyl)tetrahydrothiophene 1,1-dioxide] | 8 (≈ 19.4 µM) | > 128 | 16 (≈ 38.9 µM) | 6.58 | – |
| CC(O)CN1C[C@@H]2[C@@H](C#Cc3ccc(-c4cc(Cn5ccnc5[C@H](C)O)on4)cc3)[C@@H]2C1 (stereo partly drawn) [Compound 121, 1-[(1R,5S,6s)-6-({4-[5-((2-[(1S)-1-hydroxyethyl]-1H-imidazol-1-yl}methyl)-1,2-oxazol-3-yl]phenyl}ethynyl)-3-azabicyclo[3.1.0]hexan-3-yl]propan-2-ol] | 0.5 (≈ 1.16 µM) | 16 (≈ 37 µM) | 1 (≈ 2.31 µM) | 7.01 | – |
| C[C@H](O)c1nccn1Cc1cc(-c2ccc(C#C[C@@H]3[C@H]4CN(CCN)C[C@@H]34)cc2)on1 [Compound 122, (1S)-1-(1-{[5-(4-{[(1R,5S,6s)-3-(2-aminoethyl)-3-azabicyclo[3.1.0]hexan-6-yl]ethynyl}phenyl)-1,2-oxazol-3-yl]methyl}-1H-imidazol-2-yl)ethan-1-ol] | 4 (≈ 9.58 µM) | 4 (≈ 9.58 µM) | 4 (≈ 9.58 µM) | 7.07 | – |
| C[C@H](O)c1nccn1Cc1cc(-c2ccc(C#CC3CCN(C=O)CC3)cc2)on1 [Compound 127, 4-({4-[3-({2-[(1S)-1-hydroxyethyl]-1H-imidazol-1-yl}methyl)-1,2-oxazol-5-yl]phenyl}ethynyl)piperidine-1-carbaldehyde] | 2 (≈ 4.94 µM) | > 64 | 2 (≈ 4.94 µM) | 7.22 | – |
| CC(O)CN1CCC(C#Cc2ccc(-c3cc(Cn4ccnc4[C@H](C)O)no3)cc2)CC1 (stereo partly drawn) [Compound 128, 1-[4-((4-[3-({2-[(1S)-1-hydroxyethyl]-1H-imidazol-1-yl]methyl)-1,2-oxazol-5-yl]phenyl}ethynyl)piperidin-1-yl]propan-2-ol] | 8 (≈ 18.4 µM) | > 128 | 16 (≈ 36.8 µM) | 6.48 | – |
